The test system of one test is carmine spider mite. The test is described as follows: bioactivity test against carmine spider mite, airbrush spray. The test is classed as in vivo. To be noted: for control against carmine spider mite: mortality after 72 hrs. The procedure: (§1) Compounds were dissolved in mixed solvent (acetone:methanol=1:1), and diluted to required concentration with water containing 0.1% of tween 80.
(§2) Diamond back moth, armyworm, peach aphid and carmine spider mite were used as targets and the method of spraying by airbrush was used for determination of insecticidal biassays.
The method: Broadbean shoots with two true leaves in pot were taken, the healthy adults of carmine spider mite were inoculated to the leaves. The adults were counted and then sprayed with airbrush at the pressure of 0.7 kg/cm^2 and at dose of 0.5 ml. 3 replicates were set for each treatment. And then they were maintained in standard observation room. Scores were conducted and mortalities were calculated after 72 hrs.

Test [1] relates to Green peach aphids (Myzus Persicae Sulzer). The test is described as follows: bioactivity test against green peach aphid, airbrush foliar spray. The note with it: for control (test results against green peach aphid): death rate after 48 hrs. The test is classed as in vivo. In a few lines: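 Death rate was scored at 48 hrs, held at 25±1 C and 60±5% RH, following airbrush foliar spray (0.5 mL, 10 psi) onto cabbage leaf discs bearing about 15-30 aphids. Test solutions: compound dissolved in 1:1 acetone:methanol, brought to concentration with 0.1% tween 80 water.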

A further test concerns corn rust. The test can be described thus: protectant activity in vivo against corn rust.
The next test relates to wheat powdery mildew. The test is described as follows: protectant activity in vivo against wheat powdery mildew.
For the next test, the system named is Diamond back moth. The test can be described thus: insecticidal activity against diamond back moth, airbrush spray. In kind it is in vivo. To be noted: for control (test results against diamond back moth): 600 ppm, mortality after 72 hrs. On the procedure:
as §1, §2
The method of spraying by airbrush: The cabbage leaves were made into plates of 2 cm diameter by use of punch. A test solution (0.5 ml) was sprayed by airbrush at the pressure of 0.7 kg/cm^2 to both sides of every plate. 10 Second instar larvae were put into the petri-dishes after the leaf disc air-dried and 3 replicates were set for each treatment. Then the insects were maintained in observation room (25° C., 60˜70% R.H.). Scores were conducted and mortalities were calculated after 72 hrs.

For a further test, the system named is cucumber downy mildew. The test can be described thus: protectant activity in vivo against cucumber downy mildew.
Another test concerns armyworm. The test is described as follows: bioactivity test against armyworm, airbrush spray. The note with it: 600 ppm, mortality after 72 h. The test is classed as in vivo. The procedure: as §1, §2
The method of spraying by airbrush: The corn leaves were made into plates of 2 cm diameter by use of punch. A test solution (0.5 ml) was sprayed by airbrush at the pressure of 0.7 kg/cm^2 to both sides of every plate. 10 Second instar larvae were put into the petri-dishes after the leaf disc air-dried and 3 replicates were set for each treatment. Then the insects were maintained in observation room (25 °C, 60˜70% R.H.). Scores were conducted and mortalities were calculated after 72 h.

In the case of `FC(F)(F)c1ccc(Oc2ccc(CCNc3cc(Cl)ncn3)cc2)nc1` [CK69, reference compound], the pest or weed control at 10 µg/mL was 4% in the test on carmine spider mite (Tetranychus cinnabarinus, 72 h, 10 mg/L, contrastive test, read-out: Insecticidal activity against carmine spider mite (% )); 70% in test [1] (Myzus persicae, foliar, 48 h, 10 mg/L, contrastive test, read-out: Insecticidal activity against peach aphid (%)); 0% in the test on Diamond back moth (72 h, 10 mg/L). In addition, the pest or weed control at 100 µg/mL worked out at 100% in the test on carmine spider mite (Tetranychus cinnabarinus, 72 h, 100 mg/L, contrastive test, read-out: Insecticidal activity against carmine spider mite (% )); 100% in test [1] (Myzus persicae, foliar, 48 h, 100 mg/L, contrastive test, read-out: Insecticidal activity against peach aphid (%)); 90% in the test on corn rust (Zea mays, 168 h, read-out: control effect against corn rust (%), 100 mg/L, protectant activity); 0% in the test with wheat powdery mildew (Triticum aestivum, 168 h, read-out: control effect against wheat powdery mildew (%), 100 mg/L, protectant activity); 5% in the test on Diamond back moth (72 h, 100 mg/L); 100% with cucumber downy mildew (Cucumis sativus, 168 h, read-out: control effect against cucumber downy mildew (%), 100 mg/L, protectant activity). Moreover, the pest or weed control at 600 µg/mL with carmine spider mite (Tetranychus cinnabarinus, 72 h, 600 mg/L, contrastive test, read-out: Insecticidal activity against carmine spider mite (% )) is 100%; in test [1] (Myzus persicae, foliar, 48 h, 600 mg/L, contrastive test, read-out: Insecticidal activity against peach aphid (%)), 100%; in the test with Diamond back moth (72 h, 600 mg/L) it was 100%. The pest or weed control at 6.25 µg/mL in the test with corn rust (Zea mays, 168 h, read-out: control effect against corn rust (%), 6.25 mg/L, protectant activity) came out at 0%; in the test on wheat powdery mildew (Triticum aestivum, 168 h, read-out: control effect against wheat powdery mildew (%), 6.25 mg/L, protectant activity) it was 0%. The pest or weed control at 25 µg/mL with corn rust (Zea mays, 168 h, read-out: control effect against corn rust (%), 25 mg/L, protectant activity) is 50%; in the test with wheat powdery mildew (Triticum aestivum, 168 h, read-out: control effect against wheat powdery mildew (%), 25 mg/L, protectant activity), 0%; in the test on cucumber downy mildew (Cucumis sativus, 168 h, read-out: control effect against cucumber downy mildew (%), 25 mg/L, protectant activity), 50%. Also, the pest or weed control at 400 µg/mL with corn rust (Zea mays, 168 h, read-out: control effect against corn rust (%), 400 mg/L, protectant activity) turned out to be 100%; in the test on wheat powdery mildew (Triticum aestivum, 168 h, read-out: control effect against wheat powdery mildew (%), 400 mg/L, protectant activity), 100%; with cucumber downy mildew (Cucumis sativus, 168 h, read-out: control effect against cucumber downy mildew (%), 400 mg/L, protectant activity), 100%. Besides, the pest or weed control at 50 µg/mL with cucumber downy mildew (Cucumis sativus, 168 h, read-out: control effect against cucumber downy mildew (%), 50 mg/L, protectant activity) amounted to 98%.
In the case of `Cc1ncnc(NCCc2ccc(Oc3ccc(C(F)(F)F)cc3Cl)cc2)c1Cl` [II-154], the “control against carmine spider mite” value in the test with carmine spider mite (100 ppm) and in the test with carmine spider mite (600 ppm) was 100% in each case. Also, the “control (test results against green peach aphid)” value in test [1] (100 ppm) and in test [1] (600 ppm) was 100% throughout. The “control effect against corn rust (%)” value in the test on corn rust (1.6 mg/L, protectant activity) is on record as 50%; in the test with corn rust (6.25 mg/L, protectant activity), 100%; in the test with corn rust (25 mg/L, protectant activity), 100%; with corn rust (100 mg/L, protectant activity), 100%; with corn rust (400 mg/L, protectant activity) it was 100%. In addition, the “protectant activity against corn rust in vivo” value in the test with corn rust (6.25 ppm), in the test on corn rust (25 ppm), with corn rust (100 ppm) and with corn rust (400 ppm) was 100% throughout. Moreover, the “protectant activity against wheat powdery mildew in vivo” value with wheat powdery mildew (100 ppm) and with wheat powdery mildew (400 ppm) was 100% in each case. Besides, the “control (test results against diamond back moth)” value with Diamond back moth worked out at 100%. In the test on cucumber downy mildew (400 ppm), the “protectant activity against cucumber downy mildew in vivo” value amounted to 100%.
With `CCc1ncnc(NCCc2ccc(Oc3ccc(Cl)cc3Cl)cc2)c1Cl` [II-299], the “Insecticidal activity against carmine spider mite (% )” value came to 72% in the test on carmine spider mite (10 mg/L, contrastive test); 100% with carmine spider mite (100 mg/L, contrastive test); 100% with carmine spider mite (600 mg/L, contrastive test). Also, the “control against carmine spider mite” value in the test on carmine spider mite (100 ppm) and in the test on carmine spider mite (600 ppm) was 100% throughout. The “control (test results against green peach aphid)” value in test [1] (100 ppm) and in test [1] (600 ppm) was 100% in each case. The “protectant activity against corn rust in vivo” value with corn rust (100 ppm) and with corn rust (400 ppm) was 100% in each case. In addition, the “protectant activity against wheat powdery mildew in vivo” value with wheat powdery mildew (400 ppm) is recorded as 100%. Besides, in the test on armyworm, the “control (test results against armyworm)” value is given as 100%. For the same compound, the “protectant activity against cucumber downy mildew in vivo” value in the test on cucumber downy mildew (100 ppm) and in the test on cucumber downy mildew (400 ppm) was 100% throughout.
Take `CCc1ncnc(NCCc2ccc(Oc3ccc(S(N)(=O)=O)cc3)cc2)c1Cl` [II-556]: the “control (test results against diamond back moth)” value in the test on Diamond back moth amounted to 100%.
For the compound `COc1cc(CCNc2ncnc(C)c2Cl)ccc1Oc1ccc(Cl)cc1` [II-1687], in the test with carmine spider mite (600 ppm), the “control against carmine spider mite” value stood at 100%. Besides, the “Insecticidal activity against peach aphid (%)” value in test [1] (10 mg/L, contrastive test) worked out at 100%; in test [1] (100 mg/L, contrastive test) it was 100%; in test [1] (600 mg/L, contrastive test), 100%. Further, the “control (test results against green peach aphid)” value in test [1] (10 ppm), in test [1] (100 ppm) and in test [1] (600 ppm) was 100% each time. Besides, the “protectant activity against corn rust in vivo” value with corn rust (100 ppm) and with corn rust (400 ppm) was 100% each time. The “protectant activity against wheat powdery mildew in vivo” value in the test with wheat powdery mildew (25 ppm), in the test on wheat powdery mildew (100 ppm) and with wheat powdery mildew (400 ppm) was 100% in each case. Further, the “control (test results against diamond back moth)” value in the test with Diamond back moth was found to be 100%. The “protectant activity against cucumber downy mildew in vivo” value with cucumber downy mildew (50 ppm), in the test on cucumber downy mildew (100 ppm) and with cucumber downy mildew (400 ppm) was 100% each time.
As for `Cc1cc(Cl)ccc1Oc1ccc(CCNc2ncnc(C)c2Cl)cn1` [III-110], the “control against carmine spider mite” value with carmine spider mite (600 ppm) was found to be 100%. For the same compound, the “control (test results against green peach aphid)” value in test [1] (100 ppm) and in test [1] (600 ppm) was 100% in each case. In addition, the “protectant activity against corn rust in vivo” value in the test on corn rust (100 ppm) and with corn rust (400 ppm) was 100% in each case. In the test with wheat powdery mildew (400 ppm), the “protectant activity against wheat powdery mildew in vivo” value turned out to be 100%. Besides, the “control (test results against diamond back moth)” value with Diamond back moth turned out to be 100%. The “control effect against cucumber downy mildew (%)” value in the test with cucumber downy mildew (25 mg/L, protectant activity) worked out at 100%; with cucumber downy mildew (50 mg/L, protectant activity), 100%; in the test with cucumber downy mildew (100 mg/L, protectant activity), 100%; with cucumber downy mildew (400 mg/L, protectant activity) it was 100%. Besides, the “protectant activity against cucumber downy mildew in vivo” value in the test with cucumber downy mildew (25 ppm), in the test with cucumber downy mildew (50 ppm), with cucumber downy mildew (100 ppm) and with cucumber downy mildew (400 ppm) was 100% each time.
Turning to `CCc1ncnc(NCCc2ccc(Oc3ccccc3Cl)nc2)c1Cl` [III-185], the “control against carmine spider mite” value in the test with carmine spider mite (600 ppm) came out at 100%. Moreover, the “control (test results against green peach aphid)” value in test [1] (100 ppm) and in test [1] (600 ppm) was 100% each time. For the same compound, the “protectant activity against corn rust in vivo” value in the test on corn rust (400 ppm) is reported as 100%. Also, in the test on wheat powdery mildew (400 ppm), the “protectant activity against wheat powdery mildew in vivo” value is given as 100%. Besides, in the test with Diamond back moth, the “control (test results against diamond back moth)” value stood at 100%.
As to `Cc1nc(Cl)c(Cl)c(NCCc2ccc(Oc3ccc(Cl)cc3)nc2)n1` [III-2527], the “control (test results against green peach aphid)” value in test [1] (600 ppm) is reported as 100%. In addition, in the test with Diamond back moth, the “control (test results against diamond back moth)” value was determined as 100%. For the same compound, the “control (test results against armyworm)” value with armyworm is reported as 100%. Further, the “control effect against cucumber downy mildew (%)” value in the test on cucumber downy mildew (6.25 mg/L, protectant activity) came out at 75%; in the test with cucumber downy mildew (12.5 mg/L, protectant activity), 100%; in the test with cucumber downy mildew (25 mg/L, protectant activity), 100%; in the test on cucumber downy mildew (50 mg/L, protectant activity) it was 100%; in the test on cucumber downy mildew (100 mg/L, protectant activity) it was 100%; in the test on cucumber downy mildew (400 mg/L, protectant activity), 100%. The “protectant activity against cucumber downy mildew in vivo” value in the test on cucumber downy mildew (12.5 ppm), in the test with cucumber downy mildew (25 ppm), with cucumber downy mildew (50 ppm), with cucumber downy mildew (100 ppm) and with cucumber downy mildew (400 ppm) was 100% in each case.

These data come from patent publication US9770026B2, “Substituted pyrimidine compound and uses thereof” (Shenyang Sinochem Agrochemicals R&D Co., Ltd., priority 2012, dated 2017).
